Source: patent US20240245677A1, “SELECTED COMPOUNDS FOR TARGETED DEGRADATION OF BRD9” (C4 THERAPEUTICS, INC., priority 2021, published 2024)
Where two headings read alike, the source gives them in different places.

Assays:
[1] = Pharmacokinetic study in male Sprague Dawley rats; format: in vivo, rat; settings: rat, plasma, Male Sprague Dawley Rats; for concentration at 1 h / concentration at 2 h / concentration at 4 h / concentration at 8 h / concentration at 24 h: male, Sprague Dawley, oral, 10 mg/kg
Description: The pharmacokinetic (PK) profile in plasma of Compound 1 was determined in male Sprague Dawley rats following single dose intravenous (IV) (2 mg/kg) and per os (PO) (10 mg/kg) administration. This study was performed under non-GLP conditions, and unless otherwise stated, all analytical reagents were at least standard laboratory reagent grade, and deionized water was prepared at the study site.
The characteristics of Compound 1 used in this study were as follows: molecular weight of base, 710.78; molecular weight of Compound 1 with salt, 824.81; purity on as is basis, 99.28%.
All animals were housed in cages with clean bedding and maintained and monitored for good health and at the discretion of the laboratory animal veterinarian. Certified rodent diet was provided, and water was available ad libitum. Environmental controls for the animal room were set to maintain a temperature of 22 to 25° C., humidity of 40-70% relative humidity, and a 12-hour light/12-hour dark cycle.
Normal healthy animals certified by the attending veterinarian were selected and acclimatized for a minimum of three days prior to initiation of the study. Animals were identified by body markings.
The rats were anaesthetized with a single dose of ketamine 50 mg/kg i.p. plus xylazine 6 mg/kg i.p. The right jugular was exposed, and a loose ligature was placed caudally, and the cranial end of the vein was ligated. A small incision was made between the ligatures into which a catheter (polyethylene 50 tubing with an internal diameter of 0.58 mm and outer diameter of 0.96 mm) was inserted. The catheter was secured in place by tying the loose ligature around the catheterized vessel. A small incision was made in the scapular region to serve as the exit site of the catheter. The catheter was subcutaneously tunneled and exteriorized through the scapular incision. A stay suture was placed in the scapular area. Patency was tested, and the catheter was filled with a locking solution (heparinized saline) and sealed with a stainless-steel plug. The incision was then sutured with sterile suturing material. Anti-septic solution was applied to the sutured site and the animal was placed back in its home cage. The animals were closely observed throughout the recovery period of 24 hours. The rats were freely moving in the cage (one rat per cage).
Test animals were weighed prior to drug administration, and the standard weight of the animals used was 190 grams. The animals were divided into two groups, IV group and PO group, with each group containing 3 test animals each and 2 spare animals. The IV dose was administered by intravenous injection into the tail vein and PO dose was administered via oral gavage needle. The dosing volume was 5 mL/kg body weight for both groups. The dosing concentration was 0.4 mg/mL for the IV group and 2 mg/mL for the PO group. The animals were in fasted state during the study.
For both dosing groups, blood was collected from the jugular vein (serial sampling) for plasma isolation at 0.033, 0.33, 1, 2, 4, 6, 8, and 24 hour timepoints. The anti-coagulant solution used was 6% (v/v) sodium citrate (200 mM, pH 4.79).
For sample collection, the animals were held to remove the first two drops of blood from the cannula to ensure removal of any excess heparinized saline before collection of blood. The external catheter was connected to a syringe and 0.20-0.30 mL of blood was collected in the syringe and transferred to a pre-labeled, pre-chilled tube. Blood volume was replaced by administering to the animal an equal volume of saline through the jugular vein. After blood collection from each animal, the sample from that animal was recorded in the sample collection sheet.
After collection of each blood sample, the blood sample was stored on ice prior to centrifugation. Blood samples were centrifuged within 20 minutes of collection to separate plasma. Centrifugation was conducted at 2500×g for 15 minutes at 4° C. […]

[2] = system: HSSYII synovial sarcoma cell line; test: Global proteomics in HSSYII cells; format: cell-based, human; settings: 100 nM, 4 hours
Description: Global protein expression was performed in Yamato-SS and HSSYII synovial sarcoma cell lines after 4-hour treatment with Compound 1 (100 nM). The Yamato-SS cell line was provided by the RIKEN BRC through the National BioResource Project of the MEXT/AMED, Japan (cat #RCB3577), and the HS-SY-II cell line was provided by the RIKEN BRC through the National BioResource Project of the MEXT/AMED, Japan (cat #RCB2231).
Both Yamato-SS and HSSYII cell lines were treated with Compound 1 at 100 nM for 4 hours and analyzed by multiplexed quantitative proteomics. The x-axis illustrates the totality of the proteomics data and is labeled as fold change (FC) of Compound 1 vs vehicle in a Log 2 transformation scale. The statistical significance (T-test of treated vs. DMSO with Benjamini-Hochberg correction applied) of the observed changes is shown in the y-axis as negative Log 10 of the P-value. The horizontal dashed line marks the statistical significance (P-value ≤0.001) and the vertical line marks fold change ≥2.

[3] = 10 mg/kg PO, Rat-3, read-out: Plasma Concentration (ng/mL) Rat-3
[4] = 10 mg/kg PO, average, read-out: Plasma Concentration Average
[5] = 10 mg/kg PO, Rat-1, read-out: Plasma Concentration (ng/mL) Rat-1
[6] = 10 mg/kg PO, Rat-2, read-out: Plasma Concentration (ng/mL) Rat-2

Compound `COc1cc(-c2cn(C)c(=O)c(C)c2C)cc(OC)c1CN1CC[C@H](N2CCN(c3ccc(N[C@H]4CCC(=O)NC4=O)cc3F)CC2)C(F)(F)C1` [Compound 1, (S)-3-((4-(4-((S)-1-(2,6-dimethoxy-4-(1,4,5-trimethyl-6-oxo-1,6-dihydropyridin-3-yl)benzyl)-3,3-difluoropiperidin-4-yl)piperazin-1-yl)-3-fluorophenyl)amino)-piperidine-2,6-dione] has a concentration at 1 h [1, 3] of 729 ng/mL, a concentration at 1 h [1, 4] of 598 ng/mL and a concentration at 2 h [1, 5] of 560 ng/mL. The concentration at 2 h [1, 6] was 864 ng/mL, the concentration at 2 h [1, 3] was 594 ng/mL and the concentration at 2 h [1, 4] was 673 ng/mL. For the same compound, the concentration at 4 h ([1]; 10 mg/kg PO, Rat-1, *Outlier: Aberrant value, read-out: Plasma Concentration (ng/mL) Rat-1) was 227 ng/mL, the concentration at 4 h [1, 6] was 593 ng/mL and the concentration at 4 h [1, 3] was 420 ng/mL. The concentration at 4 h [1, 4] was 506 ng/mL, the concentration at 8 h [1, 5] was 304 ng/mL and the concentration at 8 h [1, 6] was 527 ng/mL. The concentration at 8 h [1, 3] was 370 ng/mL, the concentration at 8 h [1, 4] was 400 ng/mL and the concentration at 24 h [1, 5] was 21.5 ng/mL. It also gave a concentration at 24 h [1, 6] of 49.3 ng/mL, a concentration at 24 h [1, 3] of 36.8 ng/mL and a concentration at 24 h [1, 4] of 35.8 ng/mL. The AUC(0-inf) ([1]; 2 mg/kg IV, mean) was 1540 ng·h/mL, the AUC(0-t) ([1]; 2 mg/kg IV, mean) was 1520 ng·h/mL and the C0 ([1]; 2 mg/kg IV, mean) was 879 ng/mL. It also gave an MRT last ([1]; 2 mg/kg IV, mean) of 4.82 h, a half-life ([1]; 2 mg/kg IV, mean) of 3.97 h and a Vd ([1]; 2 mg/kg IV, mean, read-out: Vdss) of 6.7 L/kg. For the same compound, the AUC(0-inf) ([1]; 10 mg/kg PO, mean) was 6560 ng·h/mL, the AUC(0-t) ([1]; 10 mg/kg PO, mean) was 6290 ng·h/mL and the Cmax ([1]; 10 mg/kg PO, mean) was 747 ng/mL. The MRT last ([1]; 10 mg/kg PO, mean) was 7.34 h, the Tmax ([1]; 10 mg/kg PO, mean) was 1.33 h and the bioavailability ([1]; 10 mg/kg PO, mean) was 82.8%. For the same compound, the half-life ([1]; 10 mg/kg PO, mean) was 5.12 h, the “BRD9 protein level decrease vs DMSO control” value [2] was 66.7% and the Emax at 0.1 µM ([2]; Homo sapiens, read-out: BRD9 Emax) was 33.3%.
